Results as given in patent publication US9527830B2 (Merck Sharp & Dohme Corp., priority 2011, dated 2016).

How the values were obtained:
hROMK (hKir1.1) = target: T1, hROMK (hKir1.1) (Homo sapiens, UniProt P48048); experiment: Thallium Flux Assay (FluxOR, FLIPR-Tetra); type: cell-based; details: HEK293 cells stably expressing hROMK; potency ranges
T1 construct: expressed in transfected cells
T1 sequence (P48048 1-391): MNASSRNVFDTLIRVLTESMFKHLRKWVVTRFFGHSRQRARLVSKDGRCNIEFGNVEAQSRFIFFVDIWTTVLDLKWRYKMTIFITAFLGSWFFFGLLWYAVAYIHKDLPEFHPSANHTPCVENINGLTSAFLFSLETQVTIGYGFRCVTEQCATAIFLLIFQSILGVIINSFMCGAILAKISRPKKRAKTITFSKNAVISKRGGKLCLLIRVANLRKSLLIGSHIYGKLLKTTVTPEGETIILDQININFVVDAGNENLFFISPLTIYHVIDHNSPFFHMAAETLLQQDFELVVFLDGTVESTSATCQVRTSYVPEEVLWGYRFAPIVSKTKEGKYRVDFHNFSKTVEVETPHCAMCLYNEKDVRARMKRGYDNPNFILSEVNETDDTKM
Method: (§1) Several assays may be used to measure functional inhibition of the ROMK channel by compounds of the instant invention. One primary assay that can be used is a functional ^86Rb^+ efflux assay that measures the ability of ROMK to permeate ^86Rb^+, in the absence or presence of test compound. Under control conditions, cells loaded with ^86Rb^+ and incubated in Rb^+-free medium display a time-dependent efflux of the isotope, the rate of which depends on number of functional channels. When cells are incubated in the presence of a channel inhibitor, efflux of ^86Rb^+ is prevented in a concentration-dependent manner, and IC50 values of inhibition by compounds can be accurately determined. This assay has been established with cell lines expressing either human, rat or dog ROMK channels, and can operate in 96- or 384-well format. Importantly, the human, rat, and dog ^86Rb^+ efflux assays can be carried out in the presence of up to 100% serum allowing, therefore, an accurate estimation of the effect of protein binding on the inhibitory activity of compounds of interest. Another ROMK functional assay makes use of the ability of thallium to permeate through open ROMK channels and increase the fluorescence of a dye previously loaded into the cells. Under control conditions, cells loaded with dye and exposed to thallium-containing medium display a time-dependent increase in fluorescence, the rate of which depends on number of functional channels. When cells are incubated in the presence of a channel inhibitor, the increase in fluorescence is attenuated in a concentration-dependent manner, and IC50 values of inhibition by compounds can be accurately determined. This assay has been established with cell lines expressing either human, or rat ROMK channels, and operates in 384-well format. Another assay for evaluation of the compounds of the instant invention and for evaluation of mechanism of action of compounds of Formula I relies on the measurement of the electrical current that is generated as potassium permeates through the channel. For these electrophysiological experiments, three different platforms, IonWorks, QPatch, or manual patch clamp, are used, depending on the experimental protocol under consideration. IonWorks operates in a 384-well format and allows accurate determination of IC50 values for inhibitors.
HEK293 cells stably expressing hROMK (hKir1.1) were grown at 37° C. in a 10% CO2 humidified incubator in complete growth media: Dulbecco's Modified Eagle Medium supplemented with non-essential amino acids, Penicillin/Streptomycin/Glutamine, G418 and FBS. At >80% confluency, media was aspirated from the flask and rinsed with 10 ml Calcium/Magnesium-free PBS. 5 ml of 1× trypsin (prepared in Ca/Mg Free PBS) was added to T-225 flask and flask returned to 37° C./CO2 incubator for 2-3 minutes. To dislodge the cell, the side of the flask was gently banged by hand. Cells were completely triturated and then transferred to 25 ml complete media, and centrifuged at 1,500 rpm for 6 min followed by resuspension in complete growth media and cell concentration determined. For typical re-seeding, 4E6 cells/T-225 flask attained >80% confluency in 4 days. Under ideal growth conditions and appropriate tissue culture practices, this cell line was stable for 40-45 passages.
FluxOR™ Kit Components (Invitrogen F10017)
• FluxOR™ Reagent (Component A) • FluxOR™ Assay Buffer (Component B)—10× Concentrate • PowerLoad™ Concentrate (Component C)—100× Concentrate • Probenecid (Component D)—Lyophilized sample was kept at −20° C. Water soluble, 100× after solubilization in 1 ml water. Store at 4° C. • FluxOR™ Chloride-free Buffer (Component E)—5× Concentrate • Potassium sulfate (K2SO4) Concentrate (Component F)—125 mM in water. Stored at 4° C. • Thallium sulfate (Tl2SO4) Concentrate (Component G)—50 mM in water. […]

hROMK1 (Kir1.1) = target: T2, hROMK1 (Kir1.1) (Homo sapiens, UniProt P48048); experiment: ^86Rb^+ Efflux Assay; type: cell-based; details: CHO-DHFR- cells stably expressing hROMK1; potency ranges
T2 construct: expressed in transfected cells
T2 sequence (P48048 1-391): T1 sequence (P48048 1-391)
Method: as §1
CHO-DHFR-cells stably expressing hROMK1 (Kir1.1) were grown at 37° C. in a 10% CO2 humidified incubator in Iscove's Modified Dulbecco's Medium (Gibco 12440) supplemented with HT Supplement, Penicillin/Streptomycin/Glutamine, G418 (500 μg/ml) and 10% FBS. Cells were seeded in Sterile and Tissue Culture Treated Packard CulturPlate White Opaque Microplates at a concentration of 5.0E5-7.0E5 cells/ml—PerkinElmer 6005680 (96-well); Corning 3707 (384 well) in complete media containing 1.5 μCi/ml Rubidium-86. Cells were incubated in 37° C.-10% CO2 incubator overnight. On the day of the experiment, the media was removed and cells washed with low K assay buffer. ^86Rb^+ efflux was initiated after addition of assay buffer±test compound followed by 35 min incubation at room temperature. ROMK-sensitive component of efflux was defined in the presence of 10 mM BaCl2. Assay buffer was removed and transferred to a plate and cells were solubilized in the presence of SDS. Radioactivity associated with assay and cell plate was determined.
• 1. Removed cell media and washed cells with low K assay buffer (126.9 mM NaCl, 4.6 mM KCl, 2 mM CaCl2, 1 mM MgCl2, 10 mM Hepes/NaOH; pH 7.4) • 200 μl for 96-well plate; 70 μl for 384-well plate • 2. Added assay buffer (121.5 mM NaCl, 10 mM KCl, 2 mM CaCl2, 1 mM MgCl2, 10 mM Hepes/NaOH; pH 7.4)±test compound to cells • 100 μl for 96-well plate; 50 μl for 384-well plate • 3. Incubated at ambient temperature (22-24° C.) for 35 min • 4.

Row | Compound | IC50 (hROMK (hKir1.1)) [nM] | IC50 (hROMK1 (Kir1.1)) [nM]
1 | Cc1c([C@@H](O)CN2[C@@H]3CC[C@H]2CC(Nc2ccc(C#N)cn2)C3)ccc2c1COC2=O (stereo partly drawn) [Example 112, 6-((1R,5S)-8-((R)-2-Hydroxy-2-(4-methyl-1-oxo-1,3-dihydroisobenzofuran-5-yl)ethyl)-8-azabicyclo[3.2.1]octan-3-ylamino)nicotinonitrile] | ≤ 100 | –
2 | Cc1c(CCN2CCC(NCc3ccc4c(c3)COC4=O)CC2)ccc2c1COC2=O [Example 88, 4-Methyl-5-[2-(4-{[(1-oxo-1,3-dihydro-2-benzofuran-5-yl)methyl]amino}piperidin-1-yl)ethyl]-2-benzofuran-1(3H)-one] | ≤ 100 | ≤ 200
3 | Cc1c(CCN2CCC(NCc3ccc(C#N)c(F)c3)CC2)ccc2c1COC2=O [Example 90, 2-Fluoro-4-[({1-[2-(4-methyl-1-oxo-1,3-dihydro-2-benzofuran-5-yl)ethyl]piperidin-4-yl}amino)methyl]benzonitrile] | ≤ 200 | ≤ 500
4 | O=C1OCc2cc(SC3CCN(CC(O)c4ccc5c(c4)COC5=O)CC3)ccc21 (centres unmarked) [Example 85, 5-({1-[2-hydroxy-2-(1-oxo-1,3-dihydro-2-benzofuran-5-yl)ethyl]piperidin-4-yl}sulfanyl)-2-benzofuran-1(3H)-one] | ≤ 200 | ≤ 500
5 | Cc1c([C@@H](O)CN2CCC(CN(C)c3ccc(C#N)cn3)CC2)ccc2c1COC2=O [Example 93, 6-[({1-[(2R)-2-Hydroxy-2-(4-methyl-1-oxo-1,3-dihydro-2-benzofuran-5-yl)ethyl]piperidin-4-yl}methyl)(methyl)amino]pyridine-3-carbonitrile] | ≤ 200 | –
6 | Cc1c(CC(O)C2CCN(C[C@H](O)c3ccc4c(c3C)COC4=O)CC2)ccc2c1COC2=O (stereo partly drawn) [Example 87, 5-[(1R)-1-Hydroxy-2-{4-[1-hydroxy-2-(4-methyl-1-oxo-1,3-dihydro-2-benzofuran-5-yl)ethyl]piperidin-1-yl}ethyl]-4-methyl-2-benzofuran-1(3H)-one] | ≤ 100 | ≤ 200
7 | Cc1c([C@@H](O)CN2CCC(CS(=O)(=O)c3ccc4c(c3C)COC4=O)CC2)ccc2c1COC2=O [Example 99] | ≤ 100 | –
8 | Cc1c([C@@H](O)CN2CCC(C[S+]([O-])c3ccc4c(c3C)COC4=O)CC2)ccc2c1COC2=O (stereo partly drawn) [Example 96, 5-[({1-[(2R)-2-hydroxy-2-(4-methyl-1-oxo-1,3-dihydro-2-benzofuran-5-yl)ethyl]piperidin-4-yl}methyl)sulfinyl]-4-methyl-2-benzofuran-1(3H)-one] | ≤ 100 | –
9 | Cc1c(OCC2CCN(C[C@H](O)c3ccc4c(c3C)COC4=O)CC2)ccc2c1COC2=O [Example 95, 5-({1-[(2R)-2-Hydroxy-2-(4-methyl-1-oxo-1,3-dihydro-2-benzofuran-5-yl)ethyl]piperidin-4-yl}methoxy)-4-methyl-2-benzofuran-1(3H)-one] | ≤ 100 | –
10 | Cc1c(SCC2CCN(C[C@H](O)c3ccc4c(c3C)COC4=O)CC2)ccc2c1COC2=O [Example 94, 5-[({1-[(2R)-2-Hydroxy-2-(4-methyl-1-oxo-1,3-dihydro-2-benzofuran-5-yl)ethyl]piperidin-4-yl}methyl)sulfanyl]-4-methyl-2-benzofuran-1(3H)-one] | ≤ 100 | –

Further lines, results first:

Row | IC50 (hROMK (hKir1.1)) [nM] | IC50 (hROMK1 (Kir1.1)) [nM] | Compound
11 | ≤ 100 | – | Cc1c([C@@H](O)CN2CCC(CSc3ccc(C#N)cn3)CC2)ccc2c1COC2=O [Example 100, 6-[({1-[(2R)-2-Hydroxy-2-(4-methyl-1-oxo-1,3-dihydro-2-benzofuran-5-yl)ethyl]piperidin-4-yl}methyl)sulfanyl]pyridine-3-carbonitrile]
12 | ≤ 100 | – | Cc1c([C@@H](O)CN2CCC(C[S+]([O-])c3ccc4c(c3)CCOC4=O)CC2)ccc2c1COC2=O (stereo partly drawn) [Example 104, 6-[({1-[(2R)-2-Hydroxy-2-(4-methyl-1-oxo-1,3-dihydro-2-benzofuran-5-yl)ethyl]piperidin-4-yl}methyl)sulfinyl]-3,4-dihydro-1H-isochromen-1-one]
13 | ≤ 100 | – | Cc1c([C@@H](O)CN2CC3C(COc4ccc(C#N)cn4)C3C2)ccc2c1COC2=O (stereo partly drawn) [Example 106, 6-({3-[(2R)-2-Hydroxy-2-(4-methyl-1-oxo-1,3-dihydro-2-benzofuran-5-yl)ethyl]-3-azabicyclo[3.1.0]hex-6-yl}methoxy)pyridine-3-carbonitrile]
14 | ≤ 100 | – | Cc1c([C@@H](O)CN2CCC(Nc3ccc(C#N)cn3)CC2)ccc2c1COC2=O [Example 111, (R)-6-(1-(2-Hydroxy-2-(4-methyl-1-oxo-1,3-dihydroisobenzofuran-5-yl)ethyl)piperidin-4-ylamino)nicotinonitrile]
15 | ≤ 100 | – | Cc1c(C(O)CC2CCN(C(=O)Cc3ccc(-n4cnnn4)nc3)CC2)ccc2c1COC2=O (racemic) [Example 110, 5-[1-Hydroxy-2-(1-{[6-(1H-tetrazol-1-yl)pyridin-3-yl]acetyl}piperidin-4-yl)ethyl]-4-methyl-2-benzofuran-1(3H)-one]
16 | ≤ 100 | – | Cc1c([C@@H](O)CN2CCC(C)(COc3ccc(C#N)cn3)CC2)ccc2c1COC2=O [Example 107]
17 | ≤ 200 | – | Cc1c([C@@H](O)CN2CCC(CSc3ccc4c(c3)CCOC4=O)CC2)ccc2c1COC2=O [Example 103, 6-[({1-[(2R)-2-Hydroxy-2-(4-methyl-1-oxo-1,3-dihydro-2-benzofuran-5-yl)ethyl]piperidin-4-yl}methyl)sulfanyl]-3,4-dihydro-1H-isochromen-1-one]
18 | ≤ 200 | – | Cc1c([C@@H](O)CN2CCC(F)(COc3ccc(C#N)cn3)CC2)ccc2c1COC2=O [Example 102, 6-({4-Fluoro-1-[(2R)-2-hydroxy-2-(4-methyl-1-oxo-1,3-dihydro-2-benzofuran-5-yl)ethyl]piperidin-4-yl}methoxy)pyridine-3-carbonitrile]
19 | ≤ 100 | – | Cc1c([C@@H](O)CN2CCC(CS(=O)(=O)c3ccc4c(c3)CCOC4=O)CC2)ccc2c1COC2=O [Example 109, 6-[({1-[(2R)-2-Hydroxy-2-(4-methyl-1-oxo-1,3-dihydro-2-benzofuran-5-yl)ethyl]piperidin-4-yl}methyl)sulfonyl]-3,4-dihydro-1H-isochromen-1-one]
